In series [1] the test system is Aphidius rhopalosiphi. The series can be described thus: LR50; higher = less toxic. The settings on record: not reported; mortality.
Series [2] deals with Bibionidae. The settings on record: chronic/long-term; duration: 28 days; reproduction.
Series [3] relates to Rattus norvegicus.
Series [4] has as its system Canidae. The settings on record: chronic; duration: 1 years; oral; Dog Other; clinical chemistry.
Series [5] concerns Apis mellifera. The settings on record: acute; oral; unspecified; mortality.
The subject of series [6] is Colinus virginianus.
Series [7] concerns Folsomia candida. The settings on record: chronic/long-term; duration: 28 days.
In series [8] the test system is Pimephales promelas. The settings on record: chronic/long-term; duration: 28 days; growth.
The test system of series [9] is Tagia sp. The settings on record: acute; duration: 14 days; mortality.
Series [10] relates to Daphnia magna. The settings on record: chronic/long-term; duration: 21 days; reproduction.
Series [11] deals with Oryctolagus sp. The settings on record: reproduction developmental; food consumption.

Each structure is given as a SMILES string.

Turning to `O=C(Cc1ccccc1)N/C(=N\OCC1CC1)c1c(C(F)(F)F)ccc(F)c1F` [Cyflufenamid], the LR50 in series [1] came to 50 g/ha. Moreover, the NOEC in series [2] was 1 mg/L; in series [3] (reproduction developmental, mortality), 800 mg/kg-day; in series [6] (reproduction developmental), 98 mg/kg-day; in series [7] it was greater than 0.0178 mg/kg; in [8], 0.024 mg/L; in [10] it was 0.0406 mg/L. The LD50 in series [3] (acute, oral, mortality) is greater than 5000 mg/kg-day; in series [5] it was greater than 100 µg/piece; in series [6] (acute, oral, mortality) it was greater than 2000 mg/kg-day. Further, the NOAEL is 4.4 mg/kg-day in series [3] (chronic, duration: 2 years, F, histopathology: nonneoplastic); 4.4 mg/kg-day in series [3] (chronic, duration: 2 years, M, histopathology: nonneoplastic); 57 mg/kg-day in series [3] (reproduction developmental, reproduction); 4.1 mg/kg-day in [4]; 5 mg/kg-day in [11]. Besides, the LC50 was greater than 743 mg/kg-day in [6] (acute, oral, diet, mortality) and greater than 500 mg/kg in series [9].

The NOAEL is the highest dose or exposure tested at which no adverse effect was seen.

Source of the values: EPA's ToxValDB 9.5 (doi:10.2903/j.efsa.2009.258r).
